Reference: patent publication US20080051419A1, “AMINE DERIVATIVES USEFUL AS ANTICANCER AGENTS” (PFIZER INC., priority 2006, published 2008)
pIC50: −log10 of the molar value. Where two headings read alike, the source gives them in different places.

Molecular target: T1, Akt1 (Homo sapiens, UniProt P31749, S473D)
T1 construct: The version of Akt used in these studies lacks the pleckstrin homology (PH) domain
Test: Akt1 kinase assay, fluorescence polarization (IMAP)
Type: biochemical
Conditions: for pIC50: Table 1, concentration bins, read-out: Concentration Range at which exemplary compounds of formula I inhibit Akt kinase activity; for IC50: read-out: Avg Akt kinase, μM (50% inhibition)
Method: The Akt1 kinase assay is based on the measurement of fluorescence polarization using IMAP technology (Molecular Devices Corporation #R8062). Two microliters of inhibitor compounds diluted to a concentration of 10 millimolar are added to column 2 of a polypropylene 96-well plate containing 98 microliters of 100% DMSO; the wells in columns 3-12 contain 60 microliters of 100% DMSO. The various test compounds are serially diluted 1:3 across the plate by pipetting 30 microliters of compounds into wells containing 60 microliters of 100% DMSO. Column 12 receives DMSO only and is used as a negative control for inhibition. The components of the wells are mixed and 15 microliters of each well are transferred to another 96-well plate already containing 60 microliters of reaction buffer (RB: 10 mM Tris-HCl, pH 7.5, 10 mM MgCl2, 0.1 mM EGTA, 0.01% Triton-X100 (Sigma #X-100), freshly added 1 mM DTT). After mixing, the […] reactions are assembled. First, five microliters of the above compound/reaction buffer mixture is transferred to the bottom of a 96-well black polystyrene reaction plate (Costar, #3694). Next, ten microliters of a solution containing 4 micromolar ATP and 40 nanomolar fluorescent-labeled Crosstide (Tamara-labeled […] peptide) are added. Then, 5 microliters (1.5 nanograms) of Akt protein in RB are added. The version of Akt used in these studies lacks the pleckstrin homology (PH) domain, and contains an aspartic acid residue in place of a serine residue in position 473 within the Akt1 hydrophobic motif. The Akt1 protein contains a polyhistidine tag at the amino terminus and is prephosphorylated on threonine at position 308 in order to activate latent kinase activity. Once the reaction components and inhibitors are assembled, the plates are gently tapped, covered with foil, and then incubated at ambient temperature for 30 minutes. IMAP beads (Molecular Devices) are then added (60 microliters of a 1:400 dilution of beads in RB). Plates are read on a Victor Plate Reader with the following settings: CW lamp filter: 544 nm, emission filter: 615 nm. Control values from wells lacking Akt protein are subtracted from the gross readings, and IC50 values are calculated using XLDA.

T1 sequence (P31749 118-480 S473D limits assumed, species assumed): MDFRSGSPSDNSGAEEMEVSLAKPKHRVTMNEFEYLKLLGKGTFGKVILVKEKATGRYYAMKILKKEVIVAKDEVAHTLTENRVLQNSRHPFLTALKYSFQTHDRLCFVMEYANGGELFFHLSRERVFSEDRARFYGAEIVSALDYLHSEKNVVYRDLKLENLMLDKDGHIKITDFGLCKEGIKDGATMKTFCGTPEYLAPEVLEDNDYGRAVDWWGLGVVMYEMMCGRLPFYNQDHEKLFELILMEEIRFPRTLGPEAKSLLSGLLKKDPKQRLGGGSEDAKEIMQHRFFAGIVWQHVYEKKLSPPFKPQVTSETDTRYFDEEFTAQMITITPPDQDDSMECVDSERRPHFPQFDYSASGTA

SMILES | pIC50 | IC50 (Table 3) [µM] | IC50 (Table 4) [µM]
Cc1c[nH]c2ncnc(N3CCC(N)(CNc4cccc(F)c4F)C3)c12 (centres unmarked) [Example 32, 3-{[(2,3-difluorophenyl)amino]methyl}-1-(5-methyl-7H-pyrrolo[2,3-d]pyrimidin-4-yl)pyrrolidin-3-amine] | 7.00 to 8.00 | 0.0105 | –
Cc1c[nH]c2ncnc(N3CCC(N)(CNc4cc(C(F)(F)F)ccc4Oc4ccc(Cl)cc4)C3)c12 (centres unmarked) [Example 33, 3-({[2-(4-chlorophenoxy)-5-(trifluoromethyl)phenyl]amino}-methyl)-1-(5-methyl-7H-pyrrolo[2,3-d]pyrimidin-4-yl)pyrrolidin-3-amine] | 8.00 to 8.60 | 0.00859 | –
Cc1c[nH]c2ncnc(N3CCC(N)(CNc4cccc5c4CCCC5)C3)c12 (centres unmarked) [Example 35, 1-(5-methyl-7H-pyrrolo[2,3-d]pyrimidin-4-yl)-3-[(5,6,7,8-tetrahydronaphthalen-1-ylamino)methyl]pyrrolidin-3-amine] | 8.00 to 8.60 | 0.00797 | –
Cc1c[nH]c2ncnc(N3CC[C@](N)(CNc4cccc(C(F)(F)F)c4F)C3)c12 [Example 36, (3S)-3-({[2-fluoro-3-(trifluoromethyl)phenyl]amino}-methyl)-1-(5-methyl-7H-pyrrolo[2,3-d]pyrimidin-4-yl)pyrrolidin-3-amine] | 8.60 to 9.60 | 0.002 | –
Cc1c[nH]c2ncnc(N3CC[C@](N)(CNc4cccc(F)c4)C3)c12 [Example 37, (3S)-3-{[(3-fluorophenyl)amino]methyl}-1-(5-methyl-7H-pyrrolo[2,3-d]pyrimidin-4-yl)pyrrolidin-3-amine] | 8.00 to 8.60 | 0.00329 | –
N#Cc1c[nH]c2ncnc(N3CCC(N)(CNc4cccc5c4CCCC5)C3)c12 (centres unmarked) [Example 38, 4-{3-amino-3-[(5,6,7,8-tetrahydronaphthalen-1-ylamino)methyl]pyrrolidin-1-yl}-7H-pyrrolo[2,3-d]pyrimidine-5-carbonitrile] | 8.00 to 8.60 | 0.00371 | –
N#Cc1c[nH]c2ncnc(N3CCC(N)(CNc4cccc(C(F)(F)F)c4F)C3)c12 (centres unmarked) [Example 40, 4-[3-amino-3-({[2-fluoro-3-(trifluoromethyl)phenyl]amino}-methyl)pyrrolidin-1-yl]-7H-pyrrolo[2,3-d]pyrimidine-5-carbonitrile] | 8.00 to 8.60 | 0.00807 | –
NC1(CNc2cccc(C(F)(F)F)c2)CCN(c2ccnc3[nH]ccc23)C1 (centres unmarked) [Example 42, 1-(1H-pyrrolo[2,3-b]pyridin-4-yl)-3-({[3-(trifluoromethyl)phenyl]amino}-methyl)pyrrolidin-3-amine] | 7.00 to 8.00 | 0.0354 | –
Cc1c(Cl)cccc1NCC1(N)CCN(c2ncnc3[nH]cc(Cl)c23)C1 (centres unmarked) [Example 43, 3-{[(3-chloro-2-methylphenyl)amino]methyl}-1-(5-chloro-7H-pyrrolo[2,3-d]pyrimidin-4-yl)pyrrolidin-3-amine] | 8.60 to 9.60 | 0.002 | –
Cc1c[nH]c2ncnc(N3CCC(N)(CNc4cccc(-c5cnco5)c4)C3)c12 (centres unmarked) [Example 44, 1-(5-methyl-7H-pyrrolo[2,3-d]pyrimidin-4-yl)-3-({[3-(1,3-oxazol-5-yl)phenyl]amino}methyl)pyrrolidin-3-amine] | 5.00 to 7.00 | 0.837 | –
Cc1c[nH]c2ncnc(N3CCC(N)(CN(C)Cc4ccc(Cl)cc4)C3)c12 (centres unmarked) [Example 45, 3-{[(4-chlorobenzyl)(methyl)-amino]methyl}-1-(5-methyl-7H-pyrrolo[2,3-d]pyrimidin-4-yl)pyrrolidin-3-amine] | 5.00 to 7.00 | 0.144 | –
Cc1c[nH]c2ncnc(N3CCC(N)(CNCCN(C)C)C3)c12 (centres unmarked) [Example 46, N′-{[3-amino-1-(5-methyl-7H-pyrrolo[2,3-d]pyrimidin-4-yl)pyrrolidin-3-yl]methyl}-N,N-dimethylethane-1,2-diamine] | 5.00 to 7.00 | 0.125 | –
Cc1c[nH]c2ncnc(N3CCC(N)(CN(CCN(C)C)Cc4ccccc4)C3)c12 (centres unmarked) [Example 47, N-{[3-amino-1-(5-methyl-7H-pyrrolo[2,3-d]pyrimidin-4-yl)pyrrolidin-3-yl]methyl}-N-benzyl-N′,N′-dimethylethane-1,2-diamine] | 5.00 to 7.00 | 0.172 | –
CCN(CC1(N)CCN(c2ncnc3[nH]cc(C)c23)C1)c1ccccc1 (centres unmarked) [Example 50, 3-{[ethyl(phenyl)amino]methyl}-1-(5-methyl-7H-pyrrolo[2,3-d]pyrimidin-4-yl)pyrrolidin-3-amine] | 5.00 to 7.00 | 0.116 | –
Cc1c[nH]c2ncnc(N3CCC(N)(CN4CCc5ccccc54)C3)c12 (centres unmarked) [Example 51, 3-(2,3-dihydro-1H-indol-1-ylmethyl)-1-(5-methyl-7H-pyrrolo[2,3-d]pyrimidin-4-yl)pyrrolidin-3-amine] | 7.00 to 8.00 | 0.0362 | –
Cc1c[nH]c2ncnc(N3CCC(N)(CNc4ccc(Cl)nn4)C3)c12 (centres unmarked) [Example 52, N-{[3-amino-1-(5-methyl-7H-pyrrolo[2,3-d]pyrimidin-4-yl)pyrrolidin-3-yl]methyl}-6-chloropyridazin-3-amine] | 7.00 to 8.00 | 0.082 | –
CN(CC1(N)CCN(c2ncnc3[nH]cc(Cl)c23)C1)c1ccc(Cl)cc1 (centres unmarked) [Example 55, 3-{[(4-chlorophenyl)(methyl)-amino]methyl}-1-(5-chloro-7H-pyrrolo[2,3-d]pyrimidin-4-yl)pyrrolidin-3-amine] | 7.00 to 8.00 | 0.012 | –
Cc1c[nH]c2ncnc(N3CC[C@](N)(CNC4=NC(=O)CC=C4)C3)c12 [Example 56, 6-({[(3S)-3-amino-1-(5-methyl-7H-pyrrolo[2,3-d]pyrimidin-4-yl)pyrrolidin-3-yl]methyl}amino)pyridin-2(3H)-one] | 7.00 to 8.00 | 0.014 | –
Cc1c[nH]c2ncnc(N3CC[C@](N)(COc4cccc(C(F)(F)F)c4)C3)c12 [Example 61, (3R)-1-(5-methyl-7H-pyrrolo[2,3-d]pyrimidin-4-yl)-3-{[3-(trifluoromethyl)-phenoxy]methyl}pyrrolidin-3-amine] | 7.00 to 8.00 | – | 0.0335

Now from value to molecule:

pIC50 | IC50 (Table 3) [µM] | IC50 (Table 4) [µM] | SMILES
8.00 to 8.60 | 0.00771 | – | Cc1c[nH]c2ncnc(N3CCC(N)(CNc4ccc(F)cc4F)C3)c12 (centres unmarked) [Example 34, 3-{[(2,4-difluorophenyl)amino]methyl}-1-(5-methyl-7H-pyrrolo[2,3-d]pyrimidin-4-yl)pyrrolidin-3-amine]
5.00 to 7.00 | 4.1 | – | N#Cc1c[nH]c2ncnc(N3CCC(N)(CNc4ccc5c(c4)CNCC5)C3)c12 (centres unmarked) [Example 39, 4-{3-amino-3-[(1,2,3,4-tetrahydroisoquinolin-7-ylamino)methyl]pyrrolidin-1-yl}-7H-pyrrolo[2,3-d]pyrimidine-5-carbonitrile]
7.00 to 8.00 | 0.0134 | – | Cc1n[nH]c2ncnc(N3CCC(N)(CNc4cccc(Cl)c4F)C3)c12 (centres unmarked) [Example 41, 3-{[(3-chloro-2-fluorophenyl)amino]methyl}-1-(3-methyl-1H-pyrazolo[3,4-d]pyrimidin-4-yl)pyrrolidin-3-amine]
5.00 to 7.00 | 0.12 | – | Cc1c[nH]c2ncnc(N3CCC(N)(CN(C)c4ccccc4)C3)c12 (centres unmarked) [Example 48, 3-{[methyl(phenyl)amino]methyl}-1-(5-methyl-7H-pyrrolo[2,3-d]pyrimidin-4-yl)pyrrolidin-3-amine]
5.00 to 7.00 | 0.131 | – | Cc1c[nH]c2ncnc(N3CCC(N)(CN4CCCc5ccccc54)C3)c12 (centres unmarked) [Example 49, 3-(3,4-dihydroquinolin-1(2H)-ylmethyl)-1-(5-methyl-7H-pyrrolo[2,3-d]pyrimidin-4-yl)pyrrolidin-3-amine]
7.00 to 8.00 | 0.0293 | – | Cc1cc(CNC[C@@]2(N)CCN(c3ncnc4[nH]cc(C)c34)C2)no1 [Example 53, (3S)-3-({[(5-methylisoxazol-3-yl)methyl]amino}methyl)-1-(5-methyl-7H-pyrrolo[2,3-d]pyrimidin-4-yl)pyrrolidin-3-amine]
5.00 to 7.00 | 0.739 | – | Cc1c[nH]c2ncnc(N3CCC(N)(CNCC4CC4)C3)c12 (centres unmarked) [Example 54, 3-{[(cyclopropylmethyl)amino]methyl}-1-(5-methyl-7H-pyrrolo[2,3-d]pyrimidin-4-yl)pyrrolidin-3-amine]
7.00 to 8.00 | 0.0287 | – | Cc1c[nH]c2ncnc(N3CCC(N)(CNc4nccc(C(F)(F)F)n4)C3)c12 (centres unmarked) [Example 57, N-{[3-amino-1-(5-methyl-7H-pyrrolo[2,3-d]pyrimidin-4-yl)pyrrolidin-3-yl]methyl}-4-(trifluoromethyl)pyrimidin-2-amine]
7.00 to 8.00 | – | 0.0504 | Cc1c[nH]c2ncnc(N3CCC(N)(COc4cccc(C(F)(F)F)c4)C3)c12 (centres unmarked) [Example 60, 1-(5-Methyl-7H-pyrrolo[2,3-d]pyrimidin-4-yl)-3-(3-trifluoromethyl-phenoxymethyl) pyrrolidin-3-ylamine]
